Measured values as given in patent US20240182333A1, “METHODS OF TREATING COMPOUNDS USING VISIBLE LIGHT-ENABLED ACTIVATION OF PEROXYDISULFATE” (THE TEXAS A&M UNIVERSITY SYSTEM, priority 2022, published 2024).

Columns and labels:
[1] = Quenching, anoxic and D2O experiments of ATZ degradation by PDS; format: physicochemical
Procedure: In order to identify the main reactive species involved in the degradation of ATZ by PDS under light and in dark, four quenchers were added in the beginning of the reactions to scavenge possible reactive species. The concentration of MeOH, tert-butanol (TBA), and L-histidine (L-his) was 0.5 M, and the concentration of superoxide dismutase (SOD) was 50 U·ml^−1. To analyze the impact of oxygen, purified N2 gas was used to purge the system for 10 min before the quenching experiments. All tubes were capped and then sealed with parafilm to maintain an anoxic environment throughout the reaction. The ATZ concentrations in the samples taken at various time points (t=0, 5, 10, 30, 60, 120, and 240 min) were measured using HPLC. The degradation of ATZ was also repeated with D2O as the solvent for phosphate buffer with the same experimental setups.

[2] = Degradation of compounds by PDS in dark and under visible light (HPLC); format: physicochemical; settings: for pseudo-first-order rate constant kobs of ATZ degradation: [ATZ]0=10.0 μM, [PDS]0=5.0 mM, pH0=7.0, 25° C.
Procedure: Various reactions were carried out in 40 mL glass tubes with constant stirring at 300 rpm at 25±0.5° C. The temperature of solutions was monitored using a thermometer throughout the experiments. The initial concentration of atrazine (ATZ) was 10.0 uM, and the initial concentration of PDS was 5.0 mM. The irradiation fluxes emitted from the lamp and received by the solutions were measured with a LS125 UV light meter (Linshang Technology, Shenzhen, China) and a Solar Light PMA2100 radiometer (Solar Light Company, Philadelphia,
(§1) USA) 10 cm away from the lamp. The tubes in the dark treatments were covered with aluminum foil. To further confirm the PDS activation by visible light, experiments were also conducted with a UV filter film covering the simulated sunlight lamp to eliminate the effect of UV light. 1.0 mL of sample was withdrawn from each tube at different elapsed times (t=0, 1, 2, 3, 4, 5, 10, 20, 30, 60, 90, 120, and 240 min) and immediately quenched by 20 μL of 5.0 M sodium thiosulfate. The concentrations of all compositions in collected samples were measured with a Dionex UltiMate 3000 high-performance liquid chromatograph (HPLC) (Sunnyvale, USA). The settings of HPLC are provided in Example 1. The change in the concentration of PDS under different conditions was determined spectrophotometrically via an oxidation decolorization method and a modified iodometric titration method, respectively. The initial and final pH in each tube were measured with an Accumet AE150 pH meter (Westford, USA).
A simulated sunlight lamp was used as the light source in the instant example. The light fluxes that reaction solutions received in glass vials contained 39.8±0.5×10^−3 W/cm^2 of visible light in the wavelength (λ) range of 400-700 nm. The fluxes in the UV ranges contained 8.1±0.2×10^−6 W/cm^2 of UV-A (λ=315-400 nm) and 2.5±0.4×10^−6 W/cm^2 of UV-B (λ=280-315 nm), respectively. The UV-C flux (λ=230-280 nm) was negligible. Based on the flux measurement, UV light only accounted for <0.03% of the total light flux, and thus the light source utilized herein represents almost exclusively the visible light. The chemistry of PDS with visible light irradiation (PDS Light) and without (PDS Dark) was explored using six common herbicides and pharmaceuticals, namely atrazine (ATZ), sulfamethoxazole (SMX), trimethoprim (TMP), sulfadimethoxine (SDM), ibuprofen (IBP), and carbamazepine (CMZ) (FIGS. 1A-1F).

[3] = reported; cited from earlier work
[4] = Decay of PDS in dark and under visible light; format: physicochemical; settings: for PDS decayed: within 240 min, regardless of the phosphate
Procedure: as §1
In order to verify whether PDS was directly activated by visible light, the impacts of solution constituents were examined. Because 10 mM phosphate buffer was added to control the initial pH to 7.0 to take into account of the typical pH of natural waters, the impact of phosphate buffer on the decay of PDS was investigated. […] Approximately 20% and 90% of PDS decayed within 240 min in dark and under visible light, respectively, regardless of the phosphate.

SMILES	ATZ degradation by PDS Light in presence of L-his ([1]; L-his 0.5 M)	effect of D2O on rate constant of ATZ degradation ([1]; PDS Dark)	pseudo-first-order rate constant for ATZ degradation in D2O relative to water ([1]; PDS Light)	pseudo-first-order rate constant kobs of ATZ degradation ([1]; PDS Light, anoxic condition (N2 purging), without scavengers)	ATZ degradation by PDS Light in presence of scavengers ([1]; all four scavengers (MeOH, TBA, L-his 0.5 M; SOD 50 U·ml^−1))	ATZ degraded ([2]; PDS Dark, within 30 min)	pseudo-first-order rate constant kobs of ATZ degradation ([2]; PDS Dark)	pseudo-first-order rate constants of ATZ degradation with UV filter versus without UV filter ([2]; PDS Light, UV filter film between lamp and vials)	degradation of ATZ ([2]; PDS Light, in 30 min)	pseudo-first-order rate constant kobs of ATZ degradation ([2]; PDS Light, oxic)	k(SO4^●−/ATZ) [3]	rate constant for R1 (photolysis of PDS by light) ([4]; based on the rate constant of PDS decay in dark and under light)	PDS decayed ([4]; in dark)	PDS decayed ([4]; under visible light)
CCNc1nc(Cl)nc(NC(C)C)n1 [ATZ, 2-chloro-4-ethylamino-6-isopropylamino-s-triazine]	almost completely inhibited	negligible	more than 2.5 times	7.3±0.9×10^−2 min^−1	significantly hindered	37%	0.72±0.09×10^−2 min^−1	not statistically different	complete degradation	11±3.0×10^−2 min^−1	2.6−4.2×10^9 M^−1·s^−1	–	–	–
O=S(=O)([O-])OOS(=O)(=O)[O-].[K+].[K+] [PDS, Potassium peroxydisulfate]	–	–	–	–	–	–	–	–	–	–	–	around 8.8±1.1×10^−3 min^−1	Approximately 20%	~90%
